Measurements taken from ChEMBL document CHEMBL1158597, “Investigation of Beckett-Casy model 2: synthesis of novel 15-16 nornaltrexone derivatives and their pharmacology” (Bioorg Med Chem Lett, 2010).

Experiments:
[1] = biological target: Kappa-type opioid receptor (Cavia porcellus, UniProt P41144); assay: Displacement of [3H][…] from kappa opioid receptor in Hartley guinea pig cerebellum by liquid scintillation counter; assay type: tissue-based
Mu-type opioid receptor = Mu-type opioid receptor (Cavia porcellus, UniProt P97266); assay: Displacement of [3H]DAMGO from mu opioid receptor in Hartley guinea pig forebrain by liquid scintillation counting
[2] = Displacement of [3H]NTI from delta opioid receptor in Hartley guinea pig forebrain by liquid scintillation counter; set-up: species or system Cavia porcellus

Sequence of Mu-type opioid receptor (P97266 whole entry): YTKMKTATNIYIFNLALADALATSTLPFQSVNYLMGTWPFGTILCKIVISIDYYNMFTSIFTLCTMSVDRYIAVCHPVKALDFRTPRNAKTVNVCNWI
Sequence of Kappa-type opioid receptor (P41144 whole entry): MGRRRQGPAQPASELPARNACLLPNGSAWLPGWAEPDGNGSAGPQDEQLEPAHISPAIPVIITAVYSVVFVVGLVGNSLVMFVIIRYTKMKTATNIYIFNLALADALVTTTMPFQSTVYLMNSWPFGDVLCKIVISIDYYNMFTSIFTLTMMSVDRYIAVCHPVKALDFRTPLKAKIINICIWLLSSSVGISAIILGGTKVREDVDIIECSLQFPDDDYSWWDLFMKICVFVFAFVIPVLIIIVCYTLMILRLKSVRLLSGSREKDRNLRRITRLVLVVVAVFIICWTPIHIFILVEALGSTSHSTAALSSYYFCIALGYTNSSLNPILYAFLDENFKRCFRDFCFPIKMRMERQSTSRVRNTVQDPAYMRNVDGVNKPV

CN(CC1CC1)[C@@H]1Cc2ccc(O)c3c2[C@@H]2[C@H]1CCC(=O)[C@@H]2O3
Ki [1]: 8.81 nM
Ki (Mu-type opioid receptor): 3.36 nM
Ki [2]: 272 nM

CN(C)[C@@H]1Cc2ccc(O)c3c2[C@H]2[C@@H](O3)C(=O)CC[C@]21O
IC50 [1]: > 1000 nM
Ki (Mu-type opioid receptor): 8.95 nM
IC50 [2]: > 1000 nM

CN[C@@H]1Cc2ccc(O)c3c2[C@H]2[C@@H](O3)C(=O)CC[C@@]12O
IC50 [1]: > 1000 nM
Ki (Mu-type opioid receptor): 118 nM
IC50 [2]: > 1000 nM

O=C1CC[C@@]2(O)[C@H](NCC3CC3)Cc3ccc(O)c4c3[C@H]2[C@H]1O4
Ki [1]: 68.4 nM
Ki (Mu-type opioid receptor): 24.7 nM
IC50 [2]: > 1000 nM

O=C1CC[C@@H]2[C@H]3c4c(ccc(O)c4O[C@@H]13)C[C@H]2NCC1CC1
Ki [1]: 32.2 nM
Ki (Mu-type opioid receptor): 30.3 nM
IC50 [2]: > 1000 nM

O=C1CC[C@@]23OCCN(CC4CC4)[C@@H]2Cc2ccc(O)c4c2[C@H]3[C@H]1O4
IC50 [1]: > 1000 nM
Ki (Mu-type opioid receptor): 294 nM
IC50 [2]: > 1000 nM

CN(C)[C@@H]1Cc2ccc(O)c3c2[C@@H]2[C@H]1CCC(=O)[C@@H]2O3
IC50 [1]: > 1000 nM
Ki (Mu-type opioid receptor): 50.9 nM
IC50 [2]: > 1000 nM

CN(CC1CC1)[C@@H]1Cc2ccc(O)c3c2[C@H]2[C@@H](O3)C(=O)CC[C@]21O
Ki [1]: 5.1 nM
Ki (Mu-type opioid receptor): 1.17 nM
Ki [2]: 55.2 nM

CN[C@@H]1Cc2ccc(O)c3c2[C@@H]2[C@H]1CCC(=O)[C@@H]2O3
IC50 [1]: > 1000 nM
Ki (Mu-type opioid receptor): 164 nM
IC50 [2]: > 1000 nM

CN1CCO[C@@]23CCC(=O)[C@@H]4Oc5c(O)ccc(c5[C@@H]42)C[C@@H]13
IC50 [1]: > 1000 nM
IC50 (Mu-type opioid receptor): > 1000 nM
IC50 [2]: > 1000 nM

O=C1CC[C@]23OCCN4CC[C@@]25c2c(ccc(O)c2O[C@@H]15)C[C@@H]43
Ki [1]: 72.6 nM
Ki (Mu-type opioid receptor): 86 nM
IC50 [2]: > 1000 nM
